One series has as its system D2 receptor. Description: PET study, displacement of the D2 receptor label [^11C]SV-130. It is filed as in vivo, monkeys. The following applies: i.v. As to the method: Positron emission tomography (PET) was performed using live monkeys. A radioactive PET probe ([^11C]SV-130) for the D2 receptor was injected intravenously. PET images of coronal sections of the brain were obtained at the level of the caudate putamen. […] Monkeys were treated (i.v.) with either 1 mg/kg or 5 mg/kg ML321, a compound of Formula I (compound 55, Example 61).
The time course of PET ([^11C]SV-130) labelling of the caudate, putamen, and cerebellumum in the absence or presence of either 1 mg/kg or 5 mg/kg ML321 was plotted. […] When ML321 was injected i.v. the [^11C]SV-130 signal decreased gradually from about 20 minutes through the 100 minute observation period. The [^11C]SV-130 signal decrease was particularly dose dependent in the putamen graph.
The significance of the PET [^11C]SV-130 labelling data are two-fold. […] Second, the experiments provide direct evidence that ML321 can occupy D2 receptors in the CNS in living animals and completely block D2 receptors at a reasonable pharmacological dose.

Another series concerns the target Sigma 1 (Homo sapiens, UniProt Q99720). Description: Affinity profile panel: Sigma 1. The following applies: inhibition of binding.
The next series deals with SERT (Homo sapiens, UniProt P31645). Description: Affinity profile panel: SERT. The following applies: inhibition of binding. The source says: (§1) Antipsychotic drugs (depending on the specific drug) typically interact with a range of serotonergic, adrenergic, histaminergic, and muscarinic receptors.
In the next series the target is Alpha2A (Homo sapiens, UniProt P08913). In words: Affinity profile panel: Alpha2A. To be noted: inhibition of binding.
For a further series, the target named is 5-HT1E (Homo sapiens, UniProt P28566). In words: Affinity profile panel: 5-HT1E. The following applies: inhibition of binding.
For another series, the target named is DAT (Homo sapiens, UniProt Q01959). Description: Affinity profile panel: DAT. The following applies: inhibition of binding.
From the text: as §1

For series [1], the target named is D3 human dopamine receptors (Homo sapiens, UniProt P35462). Description: D3 binding assay ([^3H]methylspiperone, HEK293 membranes). Here is the method: Cells were cultured in Dulbecco's modified Eagle's Medium containing 10% FBS, 1,000 units/mL Penicillin, 1,000 mg/mL Streptomycin, 100 mM Sodium Pyruvate, 1 μg/mL Gentamicin, and […] G418. All cells were maintained at 37° C. in 5% CO2 and 90% humidity. For radioligand binding assays, cells were removed mechanically using calcium and magnesium-free Earle's Balanced Salt Solution (EBSS(−)). Intact cells were collected by centrifugation and then lysed with 5 mM Tris-HCl and 5 mM MgCl2 at pH 7.4 in a glass homogenizer. […] Membrane preparations were incubated for 90 min at room temperature with various concentrations of radioligand in a reaction volume of 250 μL EBSS containing 200 mM sodium metabisulfite. […] Bound ligand was separated from unbound by filtration through GF/C filters using a PerkinElmer cell harvester with ice cold EBSS (4 washes) and quantified on a Top-count (PerkinElmer) after addition of scintillation solution. […] In order to determine the affinity of a given compound for a receptor type, competition-binding assays were performed. […] Reactions were incubated, terminated, and quantified as indicated above.

For another series, the target named is DOR (Homo sapiens, UniProt P41143). In words: Affinity profile panel: DOR. To be noted: inhibition of binding.
The target of a further series is Alpha1B (Homo sapiens, UniProt P35368). Description: Affinity profile panel: Alpha1B. The following applies: inhibition of binding.
The next series addresses 5-HT2A (Homo sapiens, UniProt P28223). In words: Affinity profile panel: 5-HT2A. The following applies: inhibition of binding.
In the next series the target is D3 (Homo sapiens, UniProt P35462). In words: Affinity profile panel: D3. The following applies: inhibition of binding.
In the next series the target is 5-HT2B (Homo sapiens, UniProt P41595). In words: Affinity profile panel: 5-HT2B. The following applies: inhibition of binding.
From the text: as §1

The target in a further series is H2 (Homo sapiens, UniProt P25021). Description: Affinity profile panel: H2. The following applies: inhibition of binding.
The target in a further series is T1, D2 GPCR receptor (DAR) (Homo sapiens, UniProt P14416).
T1 construct: host or cells: CHO PathHunter β-arrestin cells
Description: D2 beta-arrestin functional assay (PathHunter, CHO). In kind it is cell-based. From the text: For a secondary-screen and selectivity assays, DAR PathHunter® β-arrestin GPCR cell lines from DiscoveRx (Fremont, Calif.). In this) were used. In the D2 Receptor PathHunter® β-arrestin GPCR cell line, the D2 GPCR receptor (DAR) is overexpressed and fused with a small 42-amino acid fragment of β-galactosidase called ProLink™ on a CHO cellular background expressing a fusion protein of β-arrestin and a larger N-terminal deletion mutant of β-galactosidase (“enzyme acceptor”). When DAR is activated by dopamine, it stimulates binding of β-arrestin to the ProLink-tagged DAR and the two complementary parts of β-galactosidase form a functional enzyme. When substrate (PathHunter® Detection reagent) is added, β-galactosidase hydrolyzes it and generates a chemiluminescent signal.
D2 Receptor PathHunter® β-arrestin cells were seeded at 2,100 cells/well in 3 μL/well media (DiscoveRx Plating Reagent 2) with MultiDrop Combi dispenser (Thermo Scientific, Logan, Utah) onto white tissue culture treated 1,536-well Aurora plates (Brooks Automation, Chelmsford, Mass.) and allowed to attach overnight at 37° C., 5% CO2. Next, 23 nL/well of compound solutions in DMSO were added with a pintool transfer (Kalypsis, San Diego, Calif.). The cells were stimulated by compounds for 90 min at 37° C., 5% CO2, after which 1.5 μL/well of DiscoveRx detection reagent was added with BioRAPTR FRD dispenser. The detection reagent was prepared by mixing of Galacton Star Substrate, Emerald II solution and PathHunter buffer (supplied by the assay kit) together at a 1:5:19 proportion just prior to dispensing. The plates were incubated at ambient temperature for 1 hr, and the luminescent signal was read on a ViewLux plate reader (PerkinElmer, Waltham, Mass.).

For another series, the target named is 5-HT1B (Homo sapiens, UniProt P28222). In words: Affinity profile panel: 5-HT1B. To be noted: inhibition of binding.
5-HT1B, sequence (P28222 whole entry, species assumed): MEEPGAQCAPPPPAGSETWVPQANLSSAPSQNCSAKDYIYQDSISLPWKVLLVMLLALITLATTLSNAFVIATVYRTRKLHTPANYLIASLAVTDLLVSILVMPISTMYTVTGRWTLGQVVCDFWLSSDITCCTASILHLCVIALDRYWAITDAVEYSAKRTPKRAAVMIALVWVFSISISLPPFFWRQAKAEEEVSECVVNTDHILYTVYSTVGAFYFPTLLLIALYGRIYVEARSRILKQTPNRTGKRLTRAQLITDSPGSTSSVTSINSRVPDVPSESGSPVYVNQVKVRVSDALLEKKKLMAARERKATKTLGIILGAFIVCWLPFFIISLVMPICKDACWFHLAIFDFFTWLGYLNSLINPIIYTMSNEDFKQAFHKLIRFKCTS

T1 sequence (P14416 whole entry): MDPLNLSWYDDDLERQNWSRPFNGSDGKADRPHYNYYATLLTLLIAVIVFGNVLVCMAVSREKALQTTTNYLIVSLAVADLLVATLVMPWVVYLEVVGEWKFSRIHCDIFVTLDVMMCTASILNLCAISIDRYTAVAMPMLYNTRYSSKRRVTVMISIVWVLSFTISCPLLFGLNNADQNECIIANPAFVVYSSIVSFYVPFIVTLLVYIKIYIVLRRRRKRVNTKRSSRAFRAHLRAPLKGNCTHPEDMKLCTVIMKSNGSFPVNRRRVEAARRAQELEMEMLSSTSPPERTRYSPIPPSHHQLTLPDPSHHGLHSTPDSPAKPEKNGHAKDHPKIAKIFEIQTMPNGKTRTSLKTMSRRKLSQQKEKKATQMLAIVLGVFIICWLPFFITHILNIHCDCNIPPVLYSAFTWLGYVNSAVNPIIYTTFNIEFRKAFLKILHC
5-HT2A, sequence (P28223 whole entry, species assumed): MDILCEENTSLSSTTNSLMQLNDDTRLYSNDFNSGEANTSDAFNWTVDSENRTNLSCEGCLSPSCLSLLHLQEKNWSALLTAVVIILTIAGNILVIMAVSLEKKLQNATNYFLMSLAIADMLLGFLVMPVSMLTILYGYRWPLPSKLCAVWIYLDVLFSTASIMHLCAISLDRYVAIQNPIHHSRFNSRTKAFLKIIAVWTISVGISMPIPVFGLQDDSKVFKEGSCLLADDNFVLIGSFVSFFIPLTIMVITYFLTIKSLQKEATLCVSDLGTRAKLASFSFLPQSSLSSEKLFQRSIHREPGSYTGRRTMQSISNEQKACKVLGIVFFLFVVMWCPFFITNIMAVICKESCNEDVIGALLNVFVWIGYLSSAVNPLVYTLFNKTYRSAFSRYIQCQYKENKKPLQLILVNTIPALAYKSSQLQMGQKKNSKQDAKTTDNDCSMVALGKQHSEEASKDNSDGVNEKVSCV
DAT, sequence (Q01959 whole entry, species assumed): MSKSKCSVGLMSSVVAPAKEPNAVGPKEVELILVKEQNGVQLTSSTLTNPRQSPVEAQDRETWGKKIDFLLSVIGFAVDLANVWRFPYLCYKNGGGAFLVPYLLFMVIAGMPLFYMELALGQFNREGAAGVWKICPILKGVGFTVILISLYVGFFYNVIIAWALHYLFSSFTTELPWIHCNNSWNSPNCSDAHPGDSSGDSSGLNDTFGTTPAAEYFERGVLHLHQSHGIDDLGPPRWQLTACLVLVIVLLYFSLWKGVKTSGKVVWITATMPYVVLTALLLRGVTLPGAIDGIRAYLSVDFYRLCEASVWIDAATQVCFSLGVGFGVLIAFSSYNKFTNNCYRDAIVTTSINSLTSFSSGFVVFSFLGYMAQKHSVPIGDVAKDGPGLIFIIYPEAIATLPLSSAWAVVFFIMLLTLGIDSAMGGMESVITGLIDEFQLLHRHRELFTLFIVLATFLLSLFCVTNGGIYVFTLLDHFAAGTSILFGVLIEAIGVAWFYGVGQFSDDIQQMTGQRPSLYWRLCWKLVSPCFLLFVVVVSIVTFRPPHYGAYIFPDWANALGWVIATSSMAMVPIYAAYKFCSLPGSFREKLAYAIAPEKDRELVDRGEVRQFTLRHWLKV
H2, sequence (P25021 whole entry): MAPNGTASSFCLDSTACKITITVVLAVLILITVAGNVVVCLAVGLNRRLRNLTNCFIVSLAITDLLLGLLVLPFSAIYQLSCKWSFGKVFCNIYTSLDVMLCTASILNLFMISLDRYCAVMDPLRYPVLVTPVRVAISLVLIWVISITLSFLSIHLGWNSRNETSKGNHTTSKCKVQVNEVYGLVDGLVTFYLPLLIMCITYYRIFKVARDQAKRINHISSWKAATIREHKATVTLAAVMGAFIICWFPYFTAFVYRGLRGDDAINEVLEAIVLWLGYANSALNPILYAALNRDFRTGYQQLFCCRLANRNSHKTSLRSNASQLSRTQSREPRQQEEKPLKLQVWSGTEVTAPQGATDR
DOR, sequence (P41143 whole entry): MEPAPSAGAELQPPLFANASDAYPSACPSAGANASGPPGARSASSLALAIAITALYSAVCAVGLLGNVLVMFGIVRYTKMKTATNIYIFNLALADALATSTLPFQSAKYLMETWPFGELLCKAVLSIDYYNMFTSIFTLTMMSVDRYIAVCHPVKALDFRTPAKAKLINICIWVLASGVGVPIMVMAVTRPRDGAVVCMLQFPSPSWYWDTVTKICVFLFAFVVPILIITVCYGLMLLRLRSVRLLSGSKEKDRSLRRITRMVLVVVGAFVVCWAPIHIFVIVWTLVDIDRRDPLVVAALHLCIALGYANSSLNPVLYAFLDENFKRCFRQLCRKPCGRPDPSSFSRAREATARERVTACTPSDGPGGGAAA
Alpha2A, sequence (P08913 whole entry): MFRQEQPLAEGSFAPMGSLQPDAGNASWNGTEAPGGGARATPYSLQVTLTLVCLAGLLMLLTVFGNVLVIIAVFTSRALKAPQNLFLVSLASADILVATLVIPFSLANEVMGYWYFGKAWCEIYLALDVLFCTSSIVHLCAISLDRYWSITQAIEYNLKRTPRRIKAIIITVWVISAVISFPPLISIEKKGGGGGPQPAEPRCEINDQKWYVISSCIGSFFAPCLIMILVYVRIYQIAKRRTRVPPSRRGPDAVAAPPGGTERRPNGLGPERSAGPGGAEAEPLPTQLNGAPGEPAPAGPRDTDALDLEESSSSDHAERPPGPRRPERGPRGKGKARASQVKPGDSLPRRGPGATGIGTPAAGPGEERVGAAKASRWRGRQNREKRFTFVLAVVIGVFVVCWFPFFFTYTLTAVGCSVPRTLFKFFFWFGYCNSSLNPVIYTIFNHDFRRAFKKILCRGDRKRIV
SERT, sequence (P31645 whole entry, species assumed): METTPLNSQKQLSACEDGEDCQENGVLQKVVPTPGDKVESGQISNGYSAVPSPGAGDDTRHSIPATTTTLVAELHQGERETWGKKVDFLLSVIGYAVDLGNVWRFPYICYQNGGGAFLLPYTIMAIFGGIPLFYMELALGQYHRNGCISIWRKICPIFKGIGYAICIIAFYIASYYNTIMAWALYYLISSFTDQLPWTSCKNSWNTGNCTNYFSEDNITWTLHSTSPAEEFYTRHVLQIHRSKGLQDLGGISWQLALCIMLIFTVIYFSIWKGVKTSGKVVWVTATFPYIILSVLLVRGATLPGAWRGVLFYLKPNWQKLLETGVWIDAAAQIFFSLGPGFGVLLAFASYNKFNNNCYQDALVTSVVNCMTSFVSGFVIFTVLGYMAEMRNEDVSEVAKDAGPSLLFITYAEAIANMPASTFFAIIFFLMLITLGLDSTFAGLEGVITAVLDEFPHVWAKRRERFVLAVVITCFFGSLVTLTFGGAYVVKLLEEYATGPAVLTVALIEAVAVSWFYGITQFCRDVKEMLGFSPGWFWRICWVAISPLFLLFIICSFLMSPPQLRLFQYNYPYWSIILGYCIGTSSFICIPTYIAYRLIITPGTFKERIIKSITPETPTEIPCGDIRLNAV
5-HT2B, sequence (P41595 whole entry, species assumed): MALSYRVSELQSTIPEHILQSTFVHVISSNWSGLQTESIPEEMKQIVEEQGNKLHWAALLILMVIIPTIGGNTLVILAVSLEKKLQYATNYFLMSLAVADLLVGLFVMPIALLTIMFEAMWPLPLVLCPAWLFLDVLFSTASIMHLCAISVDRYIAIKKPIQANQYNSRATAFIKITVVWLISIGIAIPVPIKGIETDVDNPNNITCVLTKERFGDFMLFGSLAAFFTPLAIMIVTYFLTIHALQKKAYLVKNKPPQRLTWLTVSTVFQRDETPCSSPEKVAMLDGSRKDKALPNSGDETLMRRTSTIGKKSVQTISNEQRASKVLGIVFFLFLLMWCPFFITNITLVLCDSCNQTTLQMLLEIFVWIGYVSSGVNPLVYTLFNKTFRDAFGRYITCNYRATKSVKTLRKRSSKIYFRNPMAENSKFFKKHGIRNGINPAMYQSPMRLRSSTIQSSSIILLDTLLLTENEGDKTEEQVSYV
D3 human dopamine receptors, sequence (P35462 whole entry): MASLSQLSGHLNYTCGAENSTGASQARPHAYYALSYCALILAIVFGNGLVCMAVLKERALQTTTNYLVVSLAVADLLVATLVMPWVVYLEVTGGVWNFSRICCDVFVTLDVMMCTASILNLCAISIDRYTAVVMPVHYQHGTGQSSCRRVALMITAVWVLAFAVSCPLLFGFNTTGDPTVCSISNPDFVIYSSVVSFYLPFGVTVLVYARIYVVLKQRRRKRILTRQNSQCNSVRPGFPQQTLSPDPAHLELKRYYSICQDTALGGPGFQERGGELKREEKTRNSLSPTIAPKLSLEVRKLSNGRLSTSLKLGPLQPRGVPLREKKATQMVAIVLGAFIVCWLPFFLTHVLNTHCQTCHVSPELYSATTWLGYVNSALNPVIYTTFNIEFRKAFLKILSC
D3, sequence (P35462 whole entry): as above
Sigma 1, sequence (Q99720 whole entry): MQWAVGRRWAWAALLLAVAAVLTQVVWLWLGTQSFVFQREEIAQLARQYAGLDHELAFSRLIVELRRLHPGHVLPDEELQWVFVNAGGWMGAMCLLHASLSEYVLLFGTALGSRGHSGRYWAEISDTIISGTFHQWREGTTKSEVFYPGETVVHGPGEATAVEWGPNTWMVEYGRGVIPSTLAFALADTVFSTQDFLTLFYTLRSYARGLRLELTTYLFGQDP

On to `CN1C(=O)c2ccccc2[S@+]([O-])c2ccc(C(=O)NCCc3cccs3)cc21` [Compound 55, 10-Methyl-11-oxo-N-(2-(thiophen-2-yl)ethyl)-10,11-dihydrodibenzo[b,f][1,4]thiazepine-8-carboxamide 5-(S)-oxide], for which, in the series with D2 receptor (monkeys, 1 mg/kg or 5 mg/kg, images 20 to 100 minutes post injection), the “Blocking of [^11C]SV-130 D2 PET probe binding in the caudate putamen” value is “blocks the binding of the D2 receptor PET probe in the caudate putamen in a dose-dependent fashion”. For the same molecule, the “Blocking of [^11C]SV-130 labeling” value with D2 receptor (monkeys, 5 mg/kg) was “almost completely blocked”. The Blood-brain barrier crossing result in the series on D2 receptor (primates, PET evidence) was “can cross the blood-brain barrier in primates”. Further, the “Inhibition (%) Sigma 1” value on Sigma 1 is 17.5%. At SERT, the “Inhibition (%) SERT” value is listed as 4.8%. In addition, the “Inhibition (%) Alpha2A” value on Alpha2A came to 7.3%. For the same molecule, at 5-HT1E, the “Inhibition (%) 5-HT1E” value is on record as 9.9%. At DAT, the “Inhibition (%) DAT” value is recorded as −5.3%. In [1], the inhibition constant Ki (commonly the dissociation constant of the complex between target and ligand, obtained from inhibition or displacement) was 2.9 µM. The “Inhibition (%) DOR” value at DOR was −23.6%. Further, the “Inhibition (%) Alpha1B” value on Alpha1B is −0.2%. Moreover, the “Inhibition (%) 5-HT2A” value on 5-HT2A was 46.3%. The “Inhibition (%) D3” value at D3 was 59.1%. For the same molecule, on 5-HT2B, the “Inhibition (%) 5-HT2B” value is recorded as 40.1%. On H2, the “Inhibition (%) H2” value is −9.2%. Further, at D2 GPCR receptor (DAR) (dose response curve, read-out: D2 β-arrestin assay AC50), the half-maximal activity concentration (AC50) (commonly the midpoint of the concentration-response curve, whichever way the signal moves) was determined as 0.725 µM. In addition, the “D3/D2 beta-arrestin IC50ratio” value on D2 GPCR receptor (DAR) (ratio of D3 (Example 4) to D2 (Example 2) beta arrestin assay) is 17.8. Besides, the “Inhibition (%) 5-HT1B” value at 5-HT1B was found to be 24.0%.

These data come from patent US9550742B2, “11-OXO-10,11-dihydrodibenzo[B,F][1,4]thiazepine S-oxide derivatives and their use as dopamine D2 receptor antagonists” (The United States of America, as Represented by the …, priority 2013, dated 2017).
